In patent US7265129B2, “Anti-infective biaryl compounds” (priority 2002, dated 2007):

Columns and labels:
C. albicans ATCC 38247 = experiment: MIC, antifungal assay, C. albicans; type: cell-based, Candida albicans
From the text: (§1) It vitro biological activity data were collected for a variety of microorganisms, including Bacillus cereus (ATCC 11778), Staphylococcus aureus (ATCC 33591; ATCC 27660, a methicillin resistant strain (MRSA); ATCC 13709, a methicillin sensitive strain (MSSA)), Enterococcus faecalis (ATCC 29212), and Streptococcus pneumoniae (ATCC 49619). Additionally, antifungal activity data were collected for Candida albicans (ATCC 38247).
(§2) Compounds according to this invention were screened for their in vitro activities against selected species of bacteria and fungi. The minimal inhibition concentration (MIC) of these compounds was determined using the National Committee for Clinical Laboratory Standards (NCCLS) broth microdilution assay in microtiter plates, as set forth in: (1) the guidelines of the National Committee for Clinical Laboratory Standards (NCCLS) Document M7-A4 (NCCLS, 1997); (2) the guidelines of the National Committee for Clinical Laboratory Standards (NCCLS) Document M11-A4 (NCCLS, 1997); and (3) the guidelines and reference method of the National Committee for Clinical Laboratory Standards (NCCLS) Document M27-T (NCCLS, 1995). For antifungal assays, the method recommended in Murray, P R., 1995 Manual of Clinical Microbiology (ASM Press, Washington, D.C.), was employed.

E. faecalis ATCC 29212 = experiment: MIC, NCCLS broth microdilution, E. faecalis; type: cell-based, Enterococcus faecalis
From the text: as §1, §2

S. pneumoniae ATCC 49619 = experiment: MIC, NCCLS broth microdilution, S. pneumoniae; type: cell-based, Streptococcus pneumoniae
From the text: as §1, §2

B. cereus ATCC 11778 = experiment: MIC, NCCLS broth microdilution, B. cereus; type: cell-based, Bacillus cereus
From the text: as §1, §2

S. aureus ATCC 33591 = experiment: MIC, NCCLS broth microdilution, S. aureus ATCC 33591; type: cell-based, Staphylococcus aureus
From the text: as §1, §2

S. aureus ATCC 13709 = experiment: MIC, NCCLS broth microdilution, S. aureus MSSA; type: cell-based, Staphylococcus aureus; details: S. aureus ATCC 13709, methicillin sensitive strain (MSSA)
From the text: as §1, §2

S. aureus ATCC 27660 = experiment: MIC, NCCLS broth microdilution, S. aureus MRSA; type: cell-based, Staphylococcus aureus; details: S. aureus ATCC 27660, methicillin resistant strain (MRSA)
From the text: as §1, §2

Row | Structure (SMILES) | Minimum Inhibitory Concentration (MIC), organism B (C. albicans ATCC 38247) | Minimum Inhibitory Concentration (MIC), organism C (E. faecalis ATCC 29212) | Minimum Inhibitory Concentration (MIC), organism G (S. pneumoniae ATCC 49619) | Minimum Inhibitory Concentration (MIC), organism A (B. cereus ATCC 11778) | Minimum Inhibitory Concentration (MIC), organism F (S. aureus ATCC 33591) | Minimum Inhibitory Concentration (MIC), organism D (S. aureus ATCC 13709) | Minimum Inhibitory Concentration (MIC), organism E (S. aureus ATCC 27660)
1 | Cn1cc(NC(=O)c2cc(NC(=O)c3ccc(Cl)cc3F)cn2CCCN2CCOCC2)cc1-c1nc2ccccc2[nH]1 [Compound A-37] | >32 µg/mL | +++ (MIC ≦ 4 μg/mL) | +++ (MIC ≦ 4 μg/mL) | +++ (MIC ≦ 4 μg/mL) | +++ (MIC ≦ 4 μg/mL) | +++ (MIC ≦ 4 μg/mL) | +++ (MIC ≦ 4 μg/mL)
2 | CN(C)CCCn1cc(NC(=O)c2ccc(F)cc2F)cc1C(=O)Nc1cc(-c2nc3ccncc3[nH]2)n(C)c1 [Compound A-18] | >32 µg/mL | +++ (MIC ≦ 4 μg/mL) | +++ (MIC ≦ 4 μg/mL) | + (12 ≦ MIC ≦ 32 μg/mL) | +++ (MIC ≦ 4 μg/mL) | + (12 ≦ MIC ≦ 32 μg/mL) | +++ (MIC ≦ 4 μg/mL)
3 | Cn1cc(NC(=O)c2cc(NC(=O)c3ccc(Cl)cc3F)cn2CCCN2CCC(F)(F)CC2)cc1-c1nc2ccccc2[nH]1 [Compound A-35] | >32 µg/mL | +++ (MIC ≦ 4 μg/mL) | +++ (MIC ≦ 4 μg/mL) | +++ (MIC ≦ 4 μg/mL) | +++ (MIC ≦ 4 μg/mL) | +++ (MIC ≦ 4 μg/mL) | +++ (MIC ≦ 4 μg/mL)
4 | CN(C)CCCn1cc(NC(=O)c2sc3ccccc3c2Cl)cc1C(=O)Nc1cc(-c2nc3ccncc3[nH]2)n(C)c1 [Compound A-29] | ++ (4 < MIC < 12 μg/mL) | +++ (MIC ≦ 4 μg/mL) | +++ (MIC ≦ 4 μg/mL) | +++ (MIC ≦ 4 μg/mL) | +++ (MIC ≦ 4 μg/mL) | +++ (MIC ≦ 4 μg/mL) | +++ (MIC ≦ 4 μg/mL)
5 | COc1cc(Cl)ccc1C(=O)Nc1cc(C(=O)Nc2cc(-c3nc4ccccc4[nH]3)n(C)c2)n(CCCN(C)C)c1 [Compound A-21] | + (12 ≦ MIC ≦ 32 μg/mL) | +++ (MIC ≦ 4 μg/mL) | +++ (MIC ≦ 4 μg/mL) | +++ (MIC ≦ 4 μg/mL) |  | ++ (4 < MIC < 12 μg/mL) | +++ (MIC ≦ 4 μg/mL)
6 | Cn1cc(NC(=O)c2sccc2Cl)cc1C(=O)Nc1cc(-c2nc3ccccc3[nH]2)n(C)c1 [Compound A-47] | + (12 ≦ MIC ≦ 32 μg/mL) | +++ (MIC ≦ 4 μg/mL) | +++ (MIC ≦ 4 μg/mL) | +++ (MIC ≦ 4 μg/mL) | +++ (MIC ≦ 4 μg/mL) | +++ (MIC ≦ 4 μg/mL) | +++ (MIC ≦ 4 μg/mL)
7 | CN(C)CCCn1cc(NC(=O)c2ccc(F)cc2F)cc1C(=O)Nc1cc(-c2nc3ncccc3[nH]2)n(C)c1 [Compound A-17] | >32 µg/mL | +++ (MIC ≦ 4 μg/mL) | +++ (MIC ≦ 4 μg/mL) | +++ (MIC ≦ 4 μg/mL) | +++ (MIC ≦ 4 μg/mL) | +++ (MIC ≦ 4 μg/mL) | +++ (MIC ≦ 4 μg/mL)
8 | Cn1cc(NC(=O)c2cc(NC(=O)c3ccc(Cl)cc3F)cn2CCCN2CCCCC2)cc1-c1nc2ccccc2[nH]1 [Compound A-32] | + (12 ≦ MIC ≦ 32 μg/mL) | +++ (MIC ≦ 4 μg/mL) | +++ (MIC ≦ 4 μg/mL) | +++ (MIC ≦ 4 μg/mL) | +++ (MIC ≦ 4 μg/mL) | +++ (MIC ≦ 4 μg/mL) | +++ (MIC ≦ 4 μg/mL)
9 | Cn1cc(NC(=O)c2cc(NC(=O)c3ccc(Cl)cc3F)cn2CCCN2CCC(O)CC2)cc1-c1nc2ccccc2[nH]1 [Compound A-34] | + (12 ≦ MIC ≦ 32 μg/mL) | +++ (MIC ≦ 4 μg/mL) | +++ (MIC ≦ 4 μg/mL) | +++ (MIC ≦ 4 μg/mL) | +++ (MIC ≦ 4 μg/mL) | +++ (MIC ≦ 4 μg/mL) | +++ (MIC ≦ 4 μg/mL)
10 | Cn1cc(NC(=O)c2cc(NC(=O)c3sc4ccccc4c3Cl)cn2CCCN2CCC(F)(F)CC2)cc1-c1nc2ccccc2[nH]1 [Compound A-25] | >32 µg/mL | + (12 ≦ MIC ≦ 32 μg/mL) | ++ (4 < MIC < 12 μg/mL) | >32 µg/mL | + (12 ≦ MIC ≦ 32 μg/mL) | + (12 ≦ MIC ≦ 32 μg/mL) | + (12 ≦ MIC ≦ 32 μg/mL)
11 | Cn1cc(NC(=O)c2cc(NC(=O)c3sc4ccccc4c3Cl)cn2CCC[n+]2ccccc2)cc1-c1nc2ccccc2[nH]1 [Compound A-27] | + (12 ≦ MIC ≦ 32 μg/mL) | + (12 ≦ MIC ≦ 32 μg/mL) | + (12 ≦ MIC ≦ 32 μg/mL) | + (12 ≦ MIC ≦ 32 μg/mL) | ++ (4 < MIC < 12 μg/mL) | ++ (4 < MIC < 12 μg/mL) | ++ (4 < MIC < 12 μg/mL)
12 | COc1cc(F)ccc1C(=O)Nc1cc(C(=O)Nc2cc(-c3nc4ccccc4[nH]3)n(C)c2)n(CCCN(C)C)c1 [Compound A-20] | + (12 ≦ MIC ≦ 32 μg/mL) | +++ (MIC ≦ 4 μg/mL) | +++ (MIC ≦ 4 μg/mL) | +++ (MIC ≦ 4 μg/mL) |  | +++ (MIC ≦ 4 μg/mL) | +++ (MIC ≦ 4 μg/mL)
13 | Cn1cc(NC(=O)c2cc(NC(=O)c3sc4ccccc4c3Cl)cn2CCCN2CCOCC2)cc1-c1nc2ccccc2[nH]1 [Compound A-26] | >32 µg/mL | +++ (MIC ≦ 4 μg/mL) | +++ (MIC ≦ 4 μg/mL) | +++ (MIC ≦ 4 μg/mL) | +++ (MIC ≦ 4 μg/mL) | +++ (MIC ≦ 4 μg/mL) | +++ (MIC ≦ 4 μg/mL)
14 | CN(C)CCCn1cc(NC(=O)c2sc3ccccc3c2Cl)cc1C(=O)Nc1cc(-c2nc3ccccc3[nH]2)n(C)c1 [Compound A-22] | + (12 ≦ MIC ≦ 32 μg/mL) | ++ (4 < MIC < 12 μg/mL) | ++ (4 < MIC < 12 μg/mL) | +++ (MIC ≦ 4 μg/mL) |  | ++ (4 < MIC < 12 μg/mL) | ++ (4 < MIC < 12 μg/mL)
